Measurements as given in ChEMBL document CHEMBL1125190, “Synthesis and anticancer and antiviral activities of various 2'- and 3'-methylidene-substituted nucleoside analogues and crystal structure of 2'-deoxy-2'-methylidenecytidine hydrochloride” (J Med Chem, 1991).
The source made the active and inactive calls. The calls are words filed in the database; no cut-off is given here.

Key:
[1] = test system: CCRF-CEM; assay: Concentration required to inhibit replication of CCRF-CEM deoxycytidine kinase deficient variant CCRF-CEM(dCK-); assay type: functional; conditions: Homo sapiens, read-out: ED50 (the source's name)
[2] = test system: L1210; assay: Concentration required to inhibit replication of L1210 cell lines by 50% after 72 hr incubation; assay type: functional; conditions: Mus musculus, L1210, 72 h; read-out: ED50 (the source's name)
[3] = test system: Mus musculus; assay: (§1) Average survival time includes only those mice that died prior to day 60 at 25 mg/kg; assay type: functional
[4] = test system: Mus musculus; assay: (§2) Average survival time includes only those mice that died prior to day 60 at 50 mg/kg; assay type: functional
[5] = test system: Human alphaherpesvirus 1; assay: Concentration required to inhibit 90% of virus yield during 24-h growth period in HSV-1 cell lines; assay type: functional
[6] = test system: P388; assay: Concentration required to inhibit replication of P388 cell lines by 50% after 72 hr incubation; assay type: functional; conditions: Mus musculus, P388, 72 h; read-out: ED50 (the source's name)
[7] = test system: CCRF-CEM; assay: Concentration required to inhibit replication of CCRF-CEM cell lines by 50% after 72 hr incubation; assay type: functional; conditions: Homo sapiens, read-out: ED50 (the source's name)
[8] = test system: Mus musculus; assay: T/C*100 represents the ratio of survival time of treated to control mice *100 at 50 mg/kg; assay type: functional
[9] = test system: Mus musculus; assay: (§3) Average survival time includes only those mice that died prior to day 60 at 75 mg/kg; assay type: functional
[10] = test system: CCRF S-180; assay: Concentration required to inhibit replication of S-180 cell lines by 50% after 72 hr incubation; assay type: functional; conditions: Mus musculus, CCRF S-180, 72 h; read-out: ED50 (the source's name)
[11] = test system: Mus musculus; assay: (§4) Ratio of survival time of treated to control mice at 25 mg/kg; assay type: functional
[12] = test system: HSV-2; assay: Concentration required to inhibit 90% of virus yield during 24-h growth period in HSV-2 cell lines; assay type: functional, Human alphaherpesvirus 2
[13] = test system: Mus musculus; assay: T/C*100 represents the ratio of survival time of treated to control mice *100 at 75 mg/kg; assay type: functional
[14] = test system: L1210; assay: as §4; assay type: functional, Mus musculus
[15] = test system: L1210; assay: (§5) Ratio of survival time of treated to control mice at 75 mg/kg; assay type: functional, Mus musculus
[16] = test system: L1210; assay: as §1; assay type: functional, Mus musculus
[17] = test system: L1210; assay: (§6) Ratio of survival time of treated to control mice at 50 mg/kg; assay type: functional, Mus musculus
[18] = test system: L1210; assay: as §2; assay type: functional, Mus musculus
[19] = test system: L1210; assay: as §3; assay type: functional, Mus musculus
[20] = test system: Mus musculus; assay: as §6; assay type: functional
[21] = test system: Mus musculus; assay: as §5; assay type: functional
[22] = test system: Mus musculus; assay: Long time survivors are the number mice that survived for >60 days relative to the number of treated mice 25 mg/kg; 0 / 5; assay type: functional, organism-based; design: dose 25 mg/kg
[23] = test system: Mus musculus; assay: Long time survivors are the number mice that survived for >60 days relative to the number of treated mice at 75 mg/kg; 0 / 5; assay type: functional, organism-based; design: dose 75 mg/kg
[24] = test system: Mus musculus; assay: Death due to toxicity occurring at a maximum body weight decrease of 10 to 22% from the average post injection body weight at 25 mg/kg; 2 / 5; assay type: functional, organism-based; design: dose 25 mg/kg
[25] = test system: Mus musculus; assay: Death due to toxicity occurring at a maximum body weight decrease of 10 to 22% from the average post injection body weight at 50 mg/kg; 5 / 5; assay type: functional, organism-based; design: dose 50 mg/kg
[26] = test system: Mus musculus; assay: Death due to toxicity occurring at a maximum body weight decrease of 10 to 22% from the average post injection body weight at 75 mg/kg; 5 / 5; assay type: functional, organism-based; design: dose 75 mg/kg
[27] = test system: Mus musculus; assay: Long time survivors are the number mice that survived for >60 days relative to the number of treated mice at 50 mg/kg; 0 / 5; assay type: functional, organism-based; design: dose 50 mg/kg

Row | SMILES | EC50 [1] | EC50 [2] | ID90 [5] | EC50 [6] | EC50 [7] | EC50 [10] | ID90 [12] | also measured
1 | C=C1C(n2ccc(N)nc2=O)O[C@H](CO)[C@@H]1O (stereo not given in full) | 77 µM | 0.3 µM | 26 µM | 0.4 µM | 0.03 µM | 1.5 µM | 5 µM | Average survival (days) [3]: 21.6; Average survival (days) [4]: 21; T/C [8]: 276; Average survival (days) [9]: 20.8; T/C [11]: 284; T/C [13]: 273
2 | C=C1[C@H](n2ccc(=O)[nH]c2=O)O[C@H](CO)[C@H]1O | – | > 100 µM | 50 µM | > 100 µM | > 100 µM | > 100 µM | 50 µM | –
3 | C=C1[C@H](n2cc(C)c(N)nc2=O)O[C@H](CO)[C@H]1O | – | > 100 µM | 32 µM | > 100 µM | 22 µM | > 100 µM | 125 µM | –
4 | C=C1C(CO)OC(n2ccc(=O)[nH]c2=O)C1O (stereo not given) | – | > 100 µM | – | > 100 µM | > 100 µM | > 100 µM | – | –
5 | C=C1[C@H](n2cc(F)c(=O)[nH]c2=O)O[C@H](CO)[C@H]1O | – | 22 µM | >250 µM | > 100 µM | 30 µM | 6.5 µM | >250 µM | –
6 | C=C1[C@H](n2cc(F)c(N)nc2=O)O[C@H](CO)[C@H]1O | 330 µM | 1.2 µM | 50 µM | 0.6 µM | 0.05 µM | 1.5 µM | 5 µM | T/C [14]: 316; T/C [15]: 243; Average survival (days) [16]: 24; T/C [17]: 279; Average survival (days) [18]: 21.2; Average survival (days) [19]: 18.5
7 | C=C1[C@H](n2cc(C)c(=O)[nH]c2=O)O[C@H](CO)[C@H]1O | – | > 100 µM | – | > 100 µM | 10 µM | > 100 µM | – | –
8 | C=C1C(CO)OC(n2ccc(N)nc2=O)C1O (stereo not given) | – | > 100 µM | >250 µM | > 100 µM | > 100 µM | > 100 µM | >250 µM | –
9 | Nc1ccn([C@@H]2O[C@H](CO)[C@@H](O)[C@@H]2O)c(=O)n1 [CYTARABINE] | 120 µM | 0.05 µM | – | 0.02 µM | 0.006 µM | 0.2 µM | – | T/C [20]: 126; T/C [21]: 111; Average survival (days) [3]: 19.7; Long-term survivors [22]: inactive; Average survival (days) [4]: 9.6; Average survival (days) [9]: 8.4; Long-term survivors [23]: inactive; Toxic deaths [24]: Partially active; Toxic deaths [25]: Active; T/C [11]: 258; Toxic deaths [26]: Active; Long-term survivors [27]: inactive
